The supplement of paper PMC11061612

What was measured:
Test in all cases: combination Emax (second highest fraction inhibited in the dose matrix, 72 h); higher = more inhibition; extreme values may be limits of the assay
[1] = system: MLMA (Other Blood Carcinomas)
In short: (§1)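 Bliss excess equals the observed combination effect minus the expected value EA + EB − EA·EB, where EA and EB are the effects of each agent alone. Combination Emax is the second-highest inhibition within the matrix. Inhibition was scaled from CellTiter-Glo 2.0 luminescence, with 0 set by vehicle wells and 1 by blank wells, after 72 hours of two-drug dosing of cells plated in 1536-well plates.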

[2] = system: NCI-H727 (Other Solid Carcinomas)
In short: as §1

[3] = system: Caov-4 (Ovarian Carcinoma)
In short: as §1

[4] = system: KYSE-450 (Esophageal Squamous Cell Carcinoma)
In short: as §1

[5] = system: BT-549 (Breast Carcinoma)
In short: as §1

[6] = system: LU-65 (Non-Small Cell Lung Carcinoma)
In short: as §1

[7] = system: MIA-PaCa-2 (Pancreatic Carcinoma)
In short: as §1

[8] = system: HGC-27 (Gastric Carcinoma)
In short: as §1

[9] = system: NCI-H1915 (Non-Small Cell Lung Carcinoma)
In short: as §1

[10] = system: VA-ES-BJ (Other Solid Carcinomas)
In short: as §1

[11] = system: RF-48 (B-Cell Non-Hodgkin's Lymphoma)
In short: as §1

[12] = system: SW13 (Other Solid Carcinomas)
In short: as §1

[13] = system: C-4-I (Cervical Carcinoma)
In short: as §1

[14] = system: OE19 (Esophageal Adenocarcinoma)
In short: as §1

[15] = system: OSC-20 (Oral Cavity Carcinoma)
In short: as §1

[16] = system: AMO-1 (Plasma Cell Myeloma)
In short: as §1

NB69 (Neuroblastoma) = system: NB69 (Neuroblastoma)
In short: as §1

ACHN (Kidney Carcinoma) = system: ACHN (Kidney Carcinoma)
In short: as §1

[17] = system: TE-1 (Esophageal Squamous Cell Carcinoma)
In short: as §1

[18] = system: KMOE-2 (Acute Myeloid Leukemia)
In short: as §1

SMILES | combination Emax [1] | combination Emax [2] | combination Emax [3] | combination Emax [4] | combination Emax [5] | combination Emax [6] | combination Emax [7] | combination Emax [8] | combination Emax [9] | combination Emax [10] | combination Emax [11] | combination Emax [12] | combination Emax [13] | combination Emax [14] | combination Emax [15] | combination Emax [16] | combination Emax (NB69 (Neuroblastoma)) | combination Emax (ACHN (Kidney Carcinoma)) | combination Emax [17] | combination Emax [18]
CN(C)CCCOc1ccc(-c2ccc3ncc4c(c3c2)n(C2CCOCC2)c(=O)n4C)cn1 [AZD0156] + CCN(CCO)CCCOc1ccc2c(Nc3cc(CC(=O)Nc4cccc(F)c4)[nH]n3)ncnc2c1 [AZD2811] (first compound max 1 µM, 7x7, partner max 1 µM) | 0.239 | 0.155 | 0.19 | 0.193 | 0.221 | 0.281 | 0.376 | 0.866 | 0.299 | 0.245 | 0.305 | 0.407 | 0.147 | 0.722 | 0.353 | 0.312 | 0.588 | 0.135 | 0.254 | 0.21
CC(=O)c1c(C)c2cnc(Nc3ccc(N4CCNCC4)cn3)nc2n(C2CCCC2)c1=O [Palbociclib] + Cc1c2c(nn1C)CSCc1cc(n(C)n1)CSc1cc(c3ccccc3c1)OCCCc1c(C(=O)O)n(C)c3c-2c(Cl)ccc13 [AZD5991] (first compound max 10 µM, 7x7, partner max 1 µM) | 0.784 | 0.311 | 0.602 | 0.263 | 0.455 | 0.281 | 0.447 | 0.715 | 0.447 | 0.283 | 0.298 | 0.838 | 0.896 | 0.664 | 0.168 | 1 | 0.91 | 0.626 | 0.194 | 0.65
CN(C)CCCOc1ccc(-c2ccc3ncc4c(c3c2)n(C2CCOCC2)c(=O)n4C)cn1 [AZD0156] + O=C(c1cc(Cc2n[nH]c(=O)c3ccccc23)ccc1F)N1CCN(C(=O)C2CC2)CC1 [Olaparib] (first compound max 3 µM, partner max 3 µM) | 0.363 | 0.286 | 0.154 | 0.159 | 0.102 | 0.268 | 0.226 | 0.478 | 0.231 | 0.284 | 0.319 | 0.421 | 0.362 | 0.512 | 0.245 | 0.481 | 0.474 | 0.338 | 0.0888 | 0.239
COc1cccc(OCCCN)c1-c1cc(Nc2cnc(C#N)cn2)n[nH]1 [Prexasertib] + Cc1cc2ncnn2cc1Nc1ncc2c(n1)n(C1CCOCC1)c(=O)n2C [AZD7648] (first compound max 1 µM, 7x7, partner max 10 µM) | 0.96 | 0.695 | 0.959 | 0.584 | 0.672 | 0.822 | 0.792 | 0.858 | 0.602 | 0.763 | 0.725 | 0.492 | 0.956 | 0.897 | 0.599 | 0.986 | 0.906 | 0.935 | 0.694 | 0.945
NC1(C(=O)N[C@@H](CCO)c2ccc(Cl)cc2)CCN(c2ncnc3[nH]ccc23)CC1 [Capivasertib] + CCN(CCO)CCCOc1ccc2c(Nc3cc(CC(=O)Nc4cccc(F)c4)[nH]n3)ncnc2c1 [AZD2811] (first compound max 10 µM, 7x7, partner max 1 µM) | 0.461 | 0.418 | 0.383 | 0.414 | 0.435 | 0.461 | 0.418 | 0.939 | 0.334 | 0.49 | 0.534 | 0.515 | 0.402 | 0.847 | 0.387 | 0.769 | 0.679 | 0.355 | 0.383 | 0.489
NC1(C(=O)N[C@@H](CCO)c2ccc(Cl)cc2)CCN(c2ncnc3[nH]ccc23)CC1 [Capivasertib] + C[C@@H]1COCCN1C2=NC(=NC(=C2)C3(CC3)[S@](=N)(=O)C)C4=C5C=CNC5=NC=C4 [AZD6738] (first compound max 10 µM, 7x7, partner max 10 µM) | 0.771 | 0.58 | 0.825 | 0.452 | 0.511 | 0.632 | 0.542 | 0.923 | 0.531 | 0.729 | 0.627 | 0.712 | 0.913 | 0.698 | 0.431 | 0.903 | 0.849 | 0.856 | 0.449 | 0.618
CN(CCO)CC[C@H](CSc1ccccc1)Nc1ccc(S(=O)(=O)NC(=O)c2ccc(N3CCC([C@@H](O)c4ccccc4-c4ccc(Cl)cc4)CC3)cc2)cc1S(=O)(=O)C(F)(F)F [AZD4320] + CN(C)CCCOc1ccc(-c2ccc3ncc4c(c3c2)n(C2CCOCC2)c(=O)n4C)cn1 [AZD0156] (first compound max 1 µM, 7x7, partner max 1 µM) | 0.374 | 0.214 | 0.276 | 0.0751 | 0.227 | 0.307 | 0.141 | 0.274 | 0.271 | 0.164 | 0.773 | 0.14 | 0.145 | 0.291 | 0.106 | 0.0251 | 0.757 | 0.125 | 0.37 | 0.847
COc1cccc(OCCCN)c1-c1cc(Nc2cnc(C#N)cn2)n[nH]1 [Prexasertib] + O=C(c1cc(Cc2n[nH]c(=O)c3ccccc23)ccc1F)N1CCN(C(=O)C2CC2)CC1 [Olaparib] (first compound max 1 µM, 7x7, partner max 10 µM) | 0.954 | 0.389 | 0.976 | 0.744 | 0.654 | 0.788 | 0.797 | 0.91 | 0.665 | 0.837 | 0.726 | 0.39 | 0.929 | 0.648 | 0.648 | 0.982 | 0.896 | 0.906 | 0.621 | 0.974
COc1cccc(OCCCN)c1-c1cc(Nc2cnc(C#N)cn2)n[nH]1 [Prexasertib] + C[C@@H]1COCCN1C2=NC(=NC(=C2)C3(CC3)[S@](=N)(=O)C)C4=C5C=CNC5=NC=C4 [AZD6738] (first compound max 1 µM, 7x7, partner max 10 µM) | 0.954 | 0.72 | 0.965 | 0.651 | 0.698 | 0.795 | 0.682 | 0.895 | 0.612 | 0.782 | 0.71 | 0.519 | 0.965 | 0.935 | 0.575 | 0.965 | 0.91 | 0.928 | 0.641 | 0.948
NC1(C(=O)N[C@@H](CCO)c2ccc(Cl)cc2)CCN(c2ncnc3[nH]ccc23)CC1 [Capivasertib] + COc1nnc2ccc(N3CCC(c4ccc(OCCN5CCN(C)C(=O)[C@H]5C)cc4)CC3)nn12 [AZD5153] (first compound max 10 µM, 7x7, partner max 1 µM) | 0.994 | 0.434 | 0.526 | 0.324 | 0.602 | 0.536 | 0.813 | 0.972 | 0.588 | 0.487 | 0.474 | 0.389 | 0.749 | 0.656 | 0.296 | 0.911 | 0.91 | 0.672 | 0.485 | 0.831
COc1nnc2ccc(N3CCC(c4ccc(OCCN5CCN(C)C(=O)[C@H]5C)cc4)CC3)nn12 [AZD5153] + CCN(CCO)CCCOc1ccc2c(Nc3cc(CC(=O)Nc4cccc(F)c4)[nH]n3)ncnc2c1 [AZD2811] (first compound max 1 µM, 7x7, partner max 1 µM) | 0.915 | 0.404 | 0.597 | 0.358 | 0.593 | 0.494 | 0.88 | 0.82 | 0.486 | 0.579 | 0.418 | 0.455 | 0.565 | 0.693 | 0.261 | 0.912 | 0.952 | 0.562 | 0.49 | 0.901
CC(=O)c1c(C)c2cnc(Nc3ccc(N4CCNCC4)cn3)nc2n(C2CCCC2)c1=O [Palbociclib] + Cn1cnc2c(F)c(Nc3ccc(Br)cc3Cl)c(C(=O)NOCCO)cc21 [Selumetinib] (first compound max 10 µM, 7x7, partner max 10 µM) | 0.769 | 0.636 | 0.585 | 0.403 | 0.226 | 0.491 | 0.604 | 0.617 | 0.782 | 0.158 | 0.277 | 0.444 | 0.349 | 0.332 | 0.182 | 0.557 | 0.988 | 0.606 | 0.383 | 1
COc1cccc(OCCCN)c1-c1cc(Nc2cnc(C#N)cn2)n[nH]1 [Prexasertib] + C=CCn1c(=O)c2cnc(Nc3ccc(N4CCN(C)CC4)cc3)nc2n1-c1cccc(C(C)(C)O)n1 [AZD1775] (first compound max 1 µM, partner max 1 µM) | 0.963 | 0.701 | 0.98 | 0.999 | 0.845 | 0.873 | 0.987 | 0.991 | 0.749 | 0.804 | 0.786 | 0.526 | 0.962 | 0.943 | 0.534 | 0.99 | 1 | 0.96 | 0.763 | 0.992
